# From ChEMBL document CHEMBL1128926, “The synthesis of a hematoregulatory agent based on HP-5B containing an effective, achiral cystine replacement” (1996)
# Positions of bridges follow the written chain, without caps; N, C: chain ends. Non-standard residues stand in square brackets, D forms with d. Residues, ends and D or L forms follow the SMILES beside them. Chains are numbered I, II in the order given. pGlu = O=C1CC[C@@H](C(=O)O)N1
# Test: Compound was evaluated for the production of HSF activity from C6.4 stromal cells using a murine CFU-GM assay.
# Assay type: functional, Mus musculus
row,SMILES,HSF activity x10e2 [ml]
1,NCCCC[C@H](NC(=O)CN(CCCCN(CC(=O)N[C@@H](CCCCN)C(=O)O)C(=O)[C@H](CC(=O)O)NC(=O)[C@H](CCC(=O)O)NC(=O)[C@@H]1CCC(=O)N1)C(=O)[C@H](CC(=O)O)NC(=O)[C@H](CCC(=O)O)NC(=O)[C@@H]1CCC(=O)N1)C(=O)O,21700
2,NCCCC[C@H](NC(=O)[C@H](CCCC[C@H](NC(=O)[C@H](CC(=O)O)NC(=O)[C@H](CCC(=O)O)NC(=O)[C@@H]1CCC(=O)N1)C(=O)N[C@@H](CCCCN)C(=O)O)NC(=O)[C@H](CC(=O)O)NC(=O)[C@H](CCC(=O)O)NC(=O)[C@@H]1CCC(=O)N1)C(=O)O [GLASPIMOD],14300
3,NCCCC[C@H](NC(=O)[C@H](CSSC[C@H](NC(=O)[C@H](CC(=O)O)NC(=O)[C@H](CCC(=O)O)NC(=O)[C@@H]1CCC(=O)N1)C(=O)N[C@@H](CCCCN)C(=O)O)NC(=O)[C@H](CC(=O)O)NC(=O)[C@H](CCC(=O)O)NC(=O)[C@@H]1CCC(=O)N1)C(=O)O (I: [pGlu]EDCK-OH / II: [pGlu]EDCK-OH; disulfide I:4-II:4),700
